According to patent publication US20260256929A1, “PROTEASE/ENZYME CLEAVABLE LINKER-PAYLOADS AND PROTEIN CONJUGATES” (priority 2022, published 2026):
Where two headings read alike, the source gives them in different places.

Legend:
Type in all cases: cell-based
[1] = test system: MDA-MB-468; assay: Free drug cell killing activity (cell proliferation assay, Cell Titer-Glo); conditions: for EC50: Homo sapiens
[2] = test system: MDA-MB-231; assay: as above; conditions: for EC50: Homo sapiens
[3] = test system: A549; assay: as above; conditions: for EC50: Homo sapiens
Procedure: (§1) The in vitro cell killing activity of exatecan, gly-exatecan, and hemiasterlin were evaluated in a panel of breast cancer and lung cancer cell lines.
(§2) MDA-MB-361, SKBR3, BT20, HCC38, HCC1143, HCC1937, JIMT1, MCF-7, A549, NCI-H441, NCI-H520, NCI-H1703, NCI-H1975, NCI-H2110, NCI-H226, NCI-H292, NCI-H358 cells were purchased from ATCC (American Type Culture Collection, Manassas, VA, USA). All the cell lines were maintained in DMEM/F12 (1:1), high glucose (Corning, Corning, NY) supplemented with 10% heat-inactivated fetal bovine serum (Thermo Scientific, Grand Island, NY), 2 mM glutamax (Thermo Scientific, Grand Island, NY), and 1× Penicillin/Streptomycin (Corning, Corning, NY). Cytotoxicity effect of the Exatecan warhead was measured with a cell proliferation assay. Cells were seeded in a 384-well flat bottom white polystyrene plate at 625 cells/25 uL the day before the actual assay starts. Exatecan was formulated at 2× starting concentration in cell culture medium, serial diluted (1:3) under sterile conditions and added onto cells in triplicates. Plates were cultured at 37° C. in a CO2 incubator for 120 hours. For cell viability measurement, 30 microliter of Cell Titer-Glo® reagent (Promega Corp, Madison, WI) was added into each well, and plates processed as per product instructions. Relative luminescence was measured on an ENVISION® plate reader (Perkin-Elmer; Waltham, MA). Relative luminescence readings were converted to % viability using untreated cells as controls. Data was fitted with non-linear regression analysis, using log (inhibitor) vs. response, variable slope, 4-parameter fit equation using GraphPad Prism.

[4] = test system: BT20; assay: as above; conditions: for EC50: Homo sapiens
Procedure: as §1, §2

[5] = test system: HCC1143; assay: as above; conditions: for EC50: Homo sapiens
Procedure: as §1, §2

[6] = test system: HCC1937; assay: as above; conditions: for EC50: Homo sapiens
Procedure: as §1, §2

[7] = test system: HCC38; assay: as above; conditions: for EC50: Homo sapiens
Procedure: as §1, §2

[8] = test system: JIMT1; assay: as above; conditions: for EC50: Homo sapiens
Procedure: as §1, §2

[9] = test system: MCF-7; assay: as above; conditions: for EC50: Homo sapiens
Procedure: as §1, §2

[10] = test system: MDA-MB-361; assay: as above; conditions: for EC50: Homo sapiens
Procedure: as §1, §2

[11] = test system: NCI-H1703; assay: as above; conditions: for EC50: Homo sapiens
Procedure: as §1, §2

[12] = test system: NCI-H1975; assay: as above; conditions: for EC50: Homo sapiens
Procedure: as §1, §2

[13] = test system: NCI-H2110; assay: as above
Procedure: as §1, §2

[14] = test system: NCI-H226; assay: as above; conditions: for EC50: Homo sapiens
Procedure: as §1, §2

[15] = test system: NCI-H292; assay: as above; conditions: for EC50: Homo sapiens
Procedure: as §1, §2

[16] = test system: NCI-H358; assay: as above; conditions: for EC50: Homo sapiens
Procedure: as §1, §2

[17] = test system: NCI-H441; assay: as above; conditions: for EC50: Homo sapiens
Procedure: as §1, §2

[18] = test system: NCI-H520; assay: as above; conditions: NCI-H520, 120 hours; for EC50: Homo sapiens
Procedure: as §1, §2

[19] = test system: SKBR3; assay: as above; conditions: for EC50: Homo sapiens
Procedure: as §1, §2

[20] = test system: NCI-H2343; assay: as above
[21] = test system: panel of breast cancer and lung cancer cell lines; assay: Free drug cell killing activity across the whole panel; conditions: all the cell lines tested (Table 2), 120 hours; read-out: EC50 values ranging over all the cell lines tested
Procedure: as §1
as §2, with “For cell viability measurement, 30 microliter of Cell Titer-Glo® reagent (Promega Corp, Madison, WI) was added into each well, and plates processed as per product instructions.” left out, “Data was fitted with non-linear regression analysis, using log (inhibitor) vs. response, variable slope, 4-parameter fit equation using GraphPad Prism.” left out

Structure (SMILES): CC[C@@]1(O)C(=O)OCc2c1cc1n(c2=O)Cc2c-1nc1cc(F)c(C)c3c1c2[C@@H](N)CC3 [Exatecan, exatecan]
- EC50 ([1]; MDA-MB-468, 120 h): 0.59 nM
- Span (%) ([1]; MDA-MB-468, 120 hours): 97%
- EC50 ([2]; MDA-MB-231, 120 h): 0.84 nM
- Span (%) ([2]; MDA-MB-231, 120 hours): 64%
- Span (%) ([3]; A549, 120 hours): 96%
- EC50 ([3]; A549, 120 h): 1.2 nM
- Span (%) ([4]; BT20, 120 hours): 96%
- EC50 ([4]; BT-20, 120 h): 0.91 nM
- Span (%) ([5]; HCC1143, 120 hours): 76%
- EC50 ([5]; HCC1143, 120 h): 0.85 nM
- Span (%) ([6]; HCC1937, 120 hours): 94%
- EC50 ([6]; HCC1937, 120 h): 3.5 nM
- Span (%) ([7]; HCC38, 120 hours): 96%
- EC50 ([7]; HCC38, 120 h): 0.38 nM
- EC50 ([8]; JIMT-1, 120 h): 1.6 nM
- Span (%) ([8]; JIMT1, 120 hours): 98%
- EC50 ([9]; MCF7, 120 h): 1.2 nM
- Span (%) ([9]; MCF-7, 120 hours): 83%
- EC50 ([10]; MDA-MB-361, 120 h): 1.2 nM
- Span (%) ([10]; MDA-MB-361, 120 hours): 96%
- EC50 ([11]; NCI-H1703, 120 h): 1.1 nM
- Span (%) ([11]; NCI-H1703, 120 hours): 93%
- EC50 ([12]; NCI-H1975, 120 h): 0.87 nM
- Span (%) ([12]; NCI-H1975, 120 hours): 90%
- EC50 ([13]; NCI-H2110, 120 h): 0.61 nM
- Span (%) ([13]; NCI-H2110, 120 hours): 91%
- EC50 ([14]; NCI-H226, 120 h): 1.08 nM
- Span (%) ([14]; NCI-H226, 120 hours): 98%
- EC50 ([15]; NCI-H292, 120 h): 0.36 nM
- Span (%) ([15]; NCI-H292, 120 hours): 98%
- EC50 ([16]; NCI-H358, 120 h): 0.53 nM
- Span (%) ([16]; NCI-H358, 120 hours): 96%
- EC50 ([17]; NCI-H441, 120 h): 0.32 nM
- Span (%) ([17]; NCI-H441, 120 hours): 93%
- EC50 [18]: 0.6 nM
- Span (%) [18]: 96%
- EC50 ([19]; SK-BR-3, 120 h): 0.39 nM
- Span (%) ([19]; SKBR3, 120 hours): 96%
- EC50 ([20]; 120 h): 12 nM
- Span (%) ([20]; NCI-H2343, 120 hours): 70%
- EC50 [21]: 0.32 to 4.2 nM

Structure (SMILES): CC[C@@]1(O)C(=O)OCc2c1cc1n(c2=O)Cc2c-1nc1cc(F)c(C)c3c1c2[C@@H](NC(=O)CN)CC3 [Gly-exatecan, gly-exatecan]
- EC50 ([1]; MDA-MB-468, 120 hours, read-out: EC50): 5.3 nM
- Span (%) ([1]; MDA-MB-468, 120 hours): 91%
- EC50 ([2]; MDA-MB-231, 120 hours, read-out: EC50): 3.8 nM
- Span (%) ([2]; MDA-MB-231, 120 hours): 60%
- Span (%) ([3]; A549, 120 hours): 90%
- EC50 ([3]; A549, 120 hours, read-out: EC50): 44 nM
- Span (%) ([4]; BT20, 120 hours): 92%
- EC50 ([4]; BT-20, BT20, 120 hours, read-out: EC50): 21 nM
- Span (%) ([5]; HCC1143, 120 hours): 76%
- EC50 ([5]; HCC1143, 120 hours, read-out: EC50): 14 nM
- Span (%) ([6]; HCC1937, 120 hours): 87%
- EC50 ([6]; HCC1937, 120 hours, read-out: EC50): 35 nM
- Span (%) ([7]; HCC38, 120 hours): 93%
- EC50 ([7]; HCC38, 120 hours, read-out: EC50): 6.1 nM
- EC50 ([8]; JIMT-1, JIMT1, 120 hours, read-out: EC50): 15 nM
- Span (%) ([8]; JIMT1, 120 hours): 70%
- EC50 ([9]; MCF7, MCF-7, 120 hours, read-out: EC50): 8.8 nM
- Span (%) ([9]; MCF-7, 120 hours): 75%
- EC50 ([10]; MDA-MB-361, 120 hours, read-out: EC50): 4.5 nM
- Span (%) ([10]; MDA-MB-361, 120 hours): 98%
- EC50 ([11]; NCI-H1703, 120 hours, read-out: EC50): 25 nM
- Span (%) ([11]; NCI-H1703, 120 hours): 91%
- EC50 ([12]; NCI-H1975, 120 hours, read-out: EC50): 43 nM
- Span (%) ([12]; NCI-H1975, 120 hours): 84%
- Span (%) ([13]; NCI-H2110, 120 hours): 89%
- EC50 ([13]; NCI-H2110, 120 hours, read-out: EC50): 9.2 nM
- EC50 ([14]; NCI-H226, 120 hours, read-out: EC50): 23 nM
- Span (%) ([14]; NCI-H226, 120 hours): 99%
- EC50 ([15]; NCI-H292, 120 hours, read-out: EC50): 4 nM
- Span (%) ([15]; NCI-H292, 120 hours): 94%
- EC50 ([16]; NCI-H358, 120 hours, read-out: EC50): 7.5 nM
- Span (%) ([16]; NCI-H358, 120 hours): 95%
- EC50 ([17]; NCI-H441, 120 hours, read-out: EC50): 5.1 nM
- Span (%) ([17]; NCI-H441, 120 hours): 90%
- EC50 [18]: 11 nM
- Span (%) [18]: 80%
- EC50 ([19]; SK-BR-3, SKBR3, 120 hours, read-out: EC50): 4.2 nM
- Span (%) ([19]; SKBR3, 120 hours): 95%
- Span (%) ([20]; NCI-H2343, 120 hours): 55%
- EC50 ([20]; NCI-H2343, 120 hours, read-out: EC50): 30 nM
- EC50 [21]: 3.8 to 44 nM
